In article PMC6934184, “Selective DNA-PKcs inhibition extends the therapeutic index of localized radiotherapy and chemotherapy” (The Journal of Clinical Investigation, 2019):

Biological target: T1, DYRK1A (Homo sapiens, UniProt Q13627)
T1 construct: purchased Thermo Fisher Scientific (Life Technologies) SelectScreen
Test: SelectScreen Z'LYTE
Assay type: biochemical
Outline: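 NU5455 was profiled across the SelectScreen Broad panel of kinase activity and binding assays. Z'LYTE reactions such as CSF1R ran at apparent Km ATP, while the Adapta CAMK1 assay used ATP listed as 10. Values are given as percent.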

In the case of `CN(C(=O)CN1CCOCC1)c1ccc2sc3c(-c4cccc5c(=O)cc(N6CC7CCC(C6)O7)oc45)cccc3c2c1` [NU5455], the inhibition at 1 µM is reported as 6.4%.
